Results: patent publication US20080182859A1 (Curis, Inc., priority 2006, published 2008)
Counter-ions that a name gives are not always drawn.

What was measured:
Format in all cases: cell-based
sonic hedgehog pathway [1] = test: Hedgehog pathway Gli-luciferase reporter assay, S12 cells; details: S12 mouse embryonic mesenchymal cells
Excerpt: Mouse (TM3: mouse Leydig cells; S12: mouse embryonic mesenchymal cells) and human (Daoy: human medulloblastoma cell; HepM: human embryonic palatal mesenchymal cell) cell lines are used to screen small molecules for their ability to modulate the activity of the sonic hedgehog pathway (Table 1, Table 2, and Table 3). Stable hedgehog pathway reporter cell lines are established by specific antibiotic selection following transfection of a reporter plasmid containing a luciferase gene located directly downstream from the gli promoter. Consequently, any observable changes in cellular luciferase activity may be attributed to changes in sonic hedgehog pathway activity in mouse and human cells, respectively, since gli is the major by-product of this pathway. To calculate activity, we generate an eleven point dose curve for each compound using 1:3 dilutions in 96 well assay plates. Each plate tested also contains low and high control to establish maximal pathway activation so to establish/compare a percentage activation of each tested compound (AMAX) on respective plates. Also we calculate EC50 values, or a concentration where the pathway will be exactly 50% activated, for each tested compound to determine potency. In these cell lines, compounds that register >20% AMAX values are considered active.
Stable hedgehog pathway reporter cell lines are established following specific antibiotic selection following transfection of a reporter plasmid In short, typically cells are plated in MicroTiter-plates at 10,000-20,000 cells per well, in growth media (containing 10%-20% FBS). After 48-72 hrs (HGL and DGL respectively) the media in the assay plates is switched to low-serum containing media (0.5% FBS). At that time compounds are added (at 1-5 μM) to the assay plates, in the presence or absence of hedgehog protein (octyl-modified version; 1-5 ng/ml). After another 24 hrs of incubation, the media from the assay plates is discarded and replaced with luciferase assay-mix. Subsequently, plates are incubated at RT for ˜15-30 mins and then read in a luminometer. [note: addition of the Hedgehog protein, although not critical, will sensitize the assay allowing the identification of weak actives].

sonic hedgehog pathway [2] = test: Human hedgehog reporter assay Daoy-GliLuc (DGL); details: Daoy human medulloblastoma cells, Gli-luciferase reporter
Procedure, shortened: (§1)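 Stable Gli-promoter luciferase reporter lines (human HepM, Daoy; mouse S12) plated at 10,000–20,000 cells/well, switched to 0.5% FBS after 48–72 h, then given compound (1–5 μM; 11-point 1:3 dose curves) with or without octyl-modified hedgehog protein (1–5 ng/ml) for 24 h. Luminescence read; AMAX vs plate controls and EC50 derived.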

sonic hedgehog pathway [3] = test: Hedgehog pathway Gli-luciferase reporter assay, TM3 cells; details: TM3 mouse Leydig cells
Procedure, shortened: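 Agonist mode: cells carrying a luciferase gene downstream of the gli promoter received compound at 1–5 μM in 0.5% FBS for 24 h, optionally sensitised with 1–5 ng/ml octyl-modified hedgehog protein; luminescence gave % activation and EC50.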

sonic hedgehog pathway [4] = test: Human hedgehog reporter assay HEPM-GliLuc (HGL); details: HepM human embryonic palatal mesenchymal cells, Gli-luciferase reporter
Procedure, shortened: as §1

[5] = read-out: Human Daoy (Gli-Luc) Avg. EC50

Row | EC50 (sonic hedgehog pathway [2]; [5]) [nM] | EC50 (sonic hedgehog pathway [2]; read-out: Daoy Avg. EC50) [nM] | EC50 (sonic hedgehog pathway [3]) [nM] | SMILES | EC50 (sonic hedgehog pathway [1]; read-out: Mouse S12 Avg. EC50) [nM] | EC50 (sonic hedgehog pathway [1]; read-out: S12 Avg. EC50) [nM] | EC50 (sonic hedgehog pathway [4]) [nM]
1 | < 50 |  |  | CNC1CCC(N(Cc2cc(-c3ccnc(F)c3)ccc2OC)C(=O)c2sc3cccc(F)c3c2Cl)CC1 (centres unmarked) [Compound 385, 3-Chloro-4-fluoro-benzo[b]thiophene-2-carboxylic acid [5-(2-fluoro-pyridin-4-yl)-2-methoxy-benzyl]-(4-methylamino-cyclohexyl)-amide] | < 50 |  | 
2 |  | 1000 to 2500 |  | CN[C@H]1CC[C@H](N(Cc2cc(-c3ccccc3[S+](C)[O-])ccc2OC)C(=O)c2sc3c(F)ccc(F)c3c2Cl)CC1 (some centres unmarked) [Compound 409, 3-Chloro-4,7-difluoro-benzo[b]thiophene-2-carboxylic acid (2′-methanesulfinyl-4-methoxy-biphenyl-3-ylmethyl)-(4-methylamino-cyclohexyl)-amide trifluoroacetate] |  | 250 to 1000 | 
3 | < 50 |  |  | CNC1CCC(N(Cc2cc(-c3ccc(F)nc3)ccc2OC)C(=O)c2sc3c(F)ccc(F)c3c2Cl)CC1 (centres unmarked) [Compound 379, 3-Chloro-4,7-difluoro-benzo[b]thiophene-2-carboxylic acid [5-(6-fluoro-pyridin-3-yl)-2-methoxy-benzyl]-(4-methylamino-cyclohexyl)-amide] | < 50 |  | 
4 |  | < 50 |  | COc1ccc(-c2cc[n+](C)cc2)cc1CN(C(=O)c1sc2c(F)ccc(F)c2c1Cl)[C@H]1CC[C@@H](N)CC1 [Compound 418] |  | 1000 to 2500 | 
5 |  | 1000 to 2500 |  | CN[C@H]1CC[C@H](N(Cc2cc(-c3ccccc3S(C)(=O)=O)ccc2OC)C(=O)c2sc3c(F)ccc(F)c3c2Cl)CC1 [Compound 411, 3-Chloro-4,7-difluoro-benzo[b]thiophene-2-carboxylic acid (2′-methanesulfonyl-4-methoxy-biphenyl-3-ylmethyl)-(4-methylamino-cyclohexyl)-amide hydrochloride] |  | 250 to 1000 | 
6 |  | < 50 |  | CN[C@H]1CC[C@H](N(Cc2cc(-c3cccnc3OC)ccc2OC)C(=O)c2sc3cccc(F)c3c2Cl)CC1 [Compound 413] |  | 50 to 250 | 
7 | < 50 |  |  | CNC1CCC(N(Cc2cc(-c3cccnc3F)ccc2OC)C(=O)c2sc3c(F)ccc(F)c3c2Cl)CC1 (centres unmarked) [Compound 378, 3-Chloro-4,7-difluoro-benzo[b]thiophene-2-carboxylic acid [5-(2-fluoro-pyridin-3-yl)-2-methoxy-benzyl]-(4-methylamino-cyclohexyl)-amide] | < 50 |  | 
8 | < 50 |  |  | CCS(=O)(=O)c1ccc(-c2ccc(OC)c(CN(C(=O)c3sc4c(F)ccc(F)c4c3Cl)[C@H]3CC[C@@H](NC)CC3)c2)cc1 [Compound 389, 3-Chloro-4,7-difluoro-benzo[b]thiophene-2-carboxylic acid (4′-ethanesulfonyl-4-methoxy-biphenyl-3-ylmethyl)-(4-methylamino-cyclohexyl)-amide hydrochloride] | < 50 |  | 
9 |  | 250 to 1000 |  | CN[C@H]1CC[C@H](N(Cc2cc(-c3ccccc3SC)ccc2OC)C(=O)c2sc3c(F)ccc(F)c3c2Cl)CC1 [Compound 408, 3-Chloro-4,7-difluoro-benzo[b]thiophene-2-carboxylic acid (4-methoxy-2′-methylsulfanyl-biphenyl-3-ylmethyl)-(4-methylamino-cyclohexyl)-amide hydrochloride] |  | 250 to 1000 | 
10 | < 50 |  |  | CNC1CCC(N(Cc2cc(-c3ccc(SC)cc3)ccc2OC)C(=O)c2sc3c(F)ccc(F)c3c2Cl)CC1 (centres unmarked) [Compound 373, 3-Chloro-4,7-difluoro-benzo[b]thiophene-2-carboxylic acid (4-methoxy-4′-methylsulfanyl-biphenyl-3-ylmethyl)-(4-methylamino-cyclohexyl)-amide hydrochloride] | < 50 |  | 
11 | 50 to 250 |  |  | C=Cc1ccc(-c2ccc(OC)c(CN(C(=O)c3sc4c(F)ccc(F)c4c3Cl)[C@H]3CC[C@@H](N)CC3)c2)cc1 [Compound 393, N-((1r,4r)-4-aminocyclohexyl)-3-chloro-4,7-difluoro-N-((4-methoxy-4′-vinylbiphenyl-3-yl)methyl)benzo[b]thiophene-2-carboxamide] | 50 to 250 |  | 
12 | < 50 |  |  | CNC1CCC(N(Cc2cc(-c3ccnc(F)c3)ccc2OC)C(=O)c2sc3c(F)ccc(F)c3c2Cl)CC1 (centres unmarked) [Compound 384, 3-Chloro-4,7-difluoro-benzo[b]thiophene-2-carboxylic acid [5-(2-fluoro-pyridin-4-yl)-2-methoxy-benzyl]-(4-methylamino-cyclohexyl)-amide] | < 50 |  | 
13 | < 50 |  |  | CN[C@H]1CC[C@@H](N(Cc2cc(-c3ccc(CS(C)(=O)=O)cc3)ccc2OC)C(=O)c2sc3c(F)ccc(F)c3c2Cl)CC1 [Compound 369, 3-Chloro-4,7-difluoro-benzo[b]thiophene-2-carboxylic acid (4′-methanesulfonylmethyl-4-methoxy-biphenyl-3-ylmethyl)-(4-methylamino-cyclohexyl)-amide hydrochloride] | < 50 |  | 
14 | < 50 |  |  | CN[C@H]1CC[C@@H](N(Cc2cc(-c3cccc([S+](C)[O-])c3)ccc2OC)C(=O)c2sc3c(F)ccc(F)c3c2Cl)CC1 (some centres unmarked) [Compound 376, 3-Chloro-4,7-difluoro-benzo[b]thiophene-2-carboxylic acid (3′-methanesulfinyl-4-methoxy-biphenyl-3-ylmethyl)-(4-methylamino-cyclohexyl)-amide trifluoroacetate] | < 50 |  | 
15 |  | < 50 |  | CCOc1cc(-c2ccc(OC)c(CN(C(=O)c3sc4c(F)ccc(F)c4c3Cl)[C@H]3CC[C@H](NC)CC3)c2)ccn1 [Compound 414] |  | 50 to 250 | 
16 | < 50 |  |  | CNC1CCC(N(Cc2cc(-c3ccc(F)nc3)ccc2OC)C(=O)c2sc3cccc(F)c3c2Cl)CC1 (centres unmarked) [Compound 382, 3-Chloro-4-fluoro-benzo[b]thiophene-2-carboxylic acid [5-(6-fluoro-pyridin-3-yl)-2-methoxy-benzyl]-(4-methylamino-cyclohexyl)-amide] | < 50 |  | 
17 |  | < 50 | < 50 | CN[C@H]1CC[C@@H](N(Cc2cc(-c3ccc(C(=O)C(F)(F)F)cc3)ccc2OC)C(=O)c2sc3ccccc3c2Cl)CC1 [Compound 302, 3-Chloro-benzo[b]thiophene-2-carboxylic acid [4-methoxy-4′-(2,2,2-trifluoro-acetyl)-biphenyl-3-ylmethyl]-(4-methylamino-cyclohexyl)-amide trifluoroacetate] |  |  | < 50
18 |  | < 50 | 250 to 1000 | CCOc1ccc(-c2cnc(N)nc2)cc1CN(C(=O)c1sc2ccccc2c1Cl)[C@H]1CC[C@@H](NC)CC1 [Compound 325, 3-Chloro-benzo[b]thiophene-2-carboxylic acid [5-(2-amino-pyrimidin-5-yl)-2-ethoxy-benzyl]-(4-methylamino-cyclohexyl)-amide dihydrochloride] |  |  | 50 to 250
19 |  | < 50 | < 50 | CN[C@H]1CC[C@@H](N(Cc2cc(-c3ccc(C#N)cc3)ccc2OC)C(=O)c2sc3ccccc3c2Cl)CC1 [Compound 301, 3-Chloro-benzo[b]thiophene-2-carboxylic acid (4′-cyano-4-methoxy-biphenyl-3-ylmethyl)-(4-methylamino-cyclohexyl)-amide hydrochloride] |  |  | 50 to 250
20 |  | < 50 | < 50 | CN[C@H]1CC[C@@H](N(Cc2cc(-c3ccnc(C)c3)ccc2OC)C(=O)c2sc3c(F)ccc(F)c3c2Cl)CC1 [Compound 345, 3-Chloro-4,7-difluoro-benzo[b]thiophene-2-carboxylic acid [2-methoxy-5-(2-methyl-pyridin-4-yl)-benzyl]-(4-methylamino-cyclohexyl)-amide dihydrochloride] |  |  | < 50
21 |  | < 50 | < 50 | CN[C@H]1CC[C@H](N(Cc2cc(-c3ccc(C(=O)C(F)(F)F)cc3)ccc2F)C(=O)c2sc3ccccc3c2Cl)CC1 [Compound 424, 3-Chloro-benzo[b]thiophene-2-carboxylic acid [4-fluoro-4′-(2,2,2-trifluoro-acetyl)-biphenyl-3-ylmethyl]-(4-methylamino-cyclohexyl)-amide trifluoroacetate] |  |  | 250 to 1000
